According to US8999889B2, “Substituted ketonic isoxazoline compounds and derivatives for combating animal pests” (BASF SE, priority 2010, dated 2015):

How the values were obtained:
Type in all cases: in vivo
Plutella xylostella = experiment: Diamond back moth (Plutella xylostella), dipped Chinese cabbage leaves; conditions: mortality recorded 24, 72, and 120 hours after treatment, read-out: mortality in comparison with untreated controls
Protocol: If not otherwise specified the test solutions were prepared as follow:
The active compound was dissolved at the desired concentration in a mixture of 1:1 (vol:vol) distilled water:acteon. The test solution was prepared at the day of use and in general at concentrations of ppm (wt/vol).
B.1 Diamond Back Moth (Plutella xylostella)
Leaves of Chinese cabbage were dipped in test solution and air-dried. Treated leaves were placed in petri dished lined with moist filter paper. Mortality was recorded 24, 72, and 120 hours after treatment.

Ceratitis capitata = experiment: Mediterranean fruitfly (Ceratitis capitata), microtiter plate with insect diet and eggs; conditions: 120 h, egg and larval mortality after 5 days, read-out: mortality in comparison with untreated controls
Protocol: B.2 Mediterranean Fruitfly (Ceratitis capitata)
For evaluating control of Mediterranean fruitfly (Ceratitis capitata) the test unit consisted of microtiter plates containing an insect diet and 50-80 C. capitata eggs.
The compounds were formulated using a solution containing 75% v/v water and 25% v/v DMSO. Different concentrations of formulated compounds were sprayed onto the insect diet at 5 μl, using a custom built micro atomizer, at two replications. After application, microtiter plates were incubated at about 28±1° C. and about 80±5% relative humidity for 5 days. Egg and larval mortality was then visually assessed.

Bemisia argentifolii = experiment: Silverleaf whitefly (Bemisia argentifolii), sprayed cotton plants; conditions: 72 h, Bemisia argentifolii adults, 3 days after treatment, read-out: mortality in comparison with untreated controls
Description: B.3 Silverleaf Whitefly (Bemisia argentifolii)
(§1) The active compounds were formulated in cyclohexanone as a 10,000 ppm solution supplied in tubes. The tubes were inserted into an automated electrostatic sprayer equipped with an atomizing nozzle and they served as stock solutions for which lower dilutions were made in 50% acetone:50% water (v/v). A nonionic surfactant (Kinetic®) was included in the solution at a volume of 0.01% (v/v).
Cotton plants at the cotyledon stage (one plant per pot) were sprayed by an automated electrostatic plant sprayer equipped with an atomizing spray nozzle. The plants were dried in the sprayer fume hood and then removed from the sprayer. Each pot was placed into a plastic cup and about 10 to 12 whitefly adults (approximately 3-5 days old) were introduced. The insects were collected using an aspirator and a nontoxic Tygon® tubing connected to a barrier pipette tip. The tip, containing the collected insects, was then gently inserted into the soil containing the treated plant, allowing insects to crawl out of the tip to reach the foliage for feeding. Cups were covered with a reusable screened lid. […] Mortality was assessed 3 days after treatment, compared to untreated control plants.

Spodoptera eridania = experiment: Southern armyworm (Spodoptera eridania), sprayed lima bean plants; conditions: 96 h, Spodoptera eridania larvae, 4 days after treatment, read-out: mortality in comparison with untreated controls
Protocol: B.4 Southern Armyworm (Spodoptera eridania)
as §1
(§2) Lima bean plants (variety Sieva) were grown 2 plants to a pot and selected for treatment at the 1st true leaf stage. Test solutions were sprayed onto the foliage by an automated electrostatic plant sprayer equipped with an atomizing spray nozzle. The plants were dried in the sprayer fume hood and then removed from the sprayer. Each pot was placed into perforated plastic bags with a zip closure. About 10 to 11 armyworm larvae were placed into the bag and the bags zipped closed. Test plants were maintained in a growth room at about 25° C. and about 20-40% relative humidity for 4 days, avoiding direct exposure to fluorescent light (24 hour photoperiod) to prevent trapping of heat inside the bags. Mortality and reduced feeding were assessed 4 days after treatment, compared to untreated control plants.

Megoura viciae = experiment: Vetch aphid (Megoura viciae), broad bean leaf disks in microtiter plates; conditions: foliar, 120 h, Megoura viciae adults, 5 days, read-out: mortality in comparison with untreated controls
Protocol: B.5 Vetch aphid (Megoura viciae)
For evaluating control of vetch aphid (Megoura viciae) through contact or systemic means the test unit consisted of 24-well-microtiter plates containing broad bean leaf disks.
The compounds were formulated using a solution containing 75% v/v water and 25% v/v DMSO. Different concentrations of formulated compounds were sprayed onto the leaf disks at 2.5 μl, using a custom built micro atomizer, at two replications. After application, the leaf disks were air-dried and 5-8 adult aphids placed on the leaf disks inside the microtiter plate wells. The aphids were then allowed to suck on the treated leaf disks and incubated at about 23±1° C. and about 50±5% relative humidity for 5 days. Aphid mortality and fecundity was then visually assessed.

Heliothis virescens = experiment: Tobacco budworm (Heliothis virescens) I, sprayed cotton plants; conditions: 96 h, Heliothis virescens larvae, 4 days after treatment, read-out: mortality in comparison with untreated controls
Protocol: B.6 Tobacco Budworm (Heliothis virescens) I
as §1
as §2, with “Cotton” for “Lima bean”, “plants” for “plants (variety Sieva)”, “cotyledon” for “1st true leaf”, “budworm” for “armyworm”

Anthonomus grandis = experiment: Boll weevil (Anthonomus grandis), microtiter plate with insect diet and eggs; conditions: 120 h, egg and larval mortality after 5 days, read-out: mortality in comparison with untreated controls
Protocol: B.7 Boll Weevil (Anthonomus grandis)
For evaluating control of boll weevil (Anthonomus grandis) the test unit consisted of 24-well-microtiter plates containing an insect diet and 20-30 A. grandis eggs.
The compounds were formulated using a solution containing 75% v/v water and 25% v/v DMSO. Different concentrations of formulated compounds were sprayed onto the insect diet at 20 μl, using a custom built micro atomizer, at two replications.
After application, microtiter plates were incubated at about 23±1° C. and about 50±5% relative humidity for 5 days. Egg and larval mortality was then visually assessed.

Myzus persicae = experiment: Green peach aphid (Myzus persicae), artificial diet under membrane, systemic; conditions: 72 h, Myzus persicae adults, 3 days, read-out: mortality in comparison with untreated controls
Description: B.8 Green Peach Aphid (Myzus Persicae)
For evaluating control of green peach aphid (Myzus persicae) through systemic means the test unit consisted of 96-well-microtiter plates containing liquid artificial diet under an artificial membrane.
The compounds were formulated using a solution containing 75% v/v water and 25% v/v DMSO. Different concentrations of formulated compounds were pipetted into the aphid diet, using a custom built pipetter, at two replications.
After application, 5-8 adult aphids were placed on the artificial membrane inside the microtiter plate wells. The aphids were then allowed to suck on the treated aphid diet and incubated at about 23±1° C. and about 50±5% relative humidity for 3 days. Aphid mortality and fecundity was then visually assessed.

CC(=O)c1ccc(C2=NOC(c3cc(Cl)cc(Cl)c3)(C(F)(F)F)C2)cc1C (stereo not drawn) [Compound 1-1, 1-{4-[5-(3,5-Dichloro-phenyl)-5-trifluoromethyl-4,5-dihydro-isoxazol-3-yl]-2-methyl-phenyl}-ethanone]
≥ 75%: mortality at 300 ppm (Plutella xylostella) | mortality at 2500 ppm (Ceratitis capitata) | mortality at 300 ppm (Bemisia argentifolii) | mortality at 300 ppm (Spodoptera eridania) | mortality at 2500 ppm (Megoura viciae) | mortality at 2500 ppm (Heliothis virescens) | mortality at 2500 ppm (Anthonomus grandis) | mortality at 2500 ppm (Myzus persicae)

Cc1cc(C2=NOC(c3cc(Cl)cc(Cl)c3)(C(F)(F)F)C2)ccc1C(=O)CC(C)C (stereo not drawn) [Compound 1-2, 1-{4-[5-(3,5-Dichloro-phenyl)-5-trifluoromethyl-4,5-dihydro-isoxazol-3-yl]-2-methyl-phenyl}-3-methyl-butan-1-one]
≥ 75%: mortality at 300 ppm (Plutella xylostella) | mortality at 2500 ppm (Ceratitis capitata) | mortality at 300 ppm (Bemisia argentifolii) | mortality at 300 ppm (Spodoptera eridania) | mortality at 2500 ppm (Megoura viciae) | mortality at 2500 ppm (Heliothis virescens) | mortality at 2500 ppm (Myzus persicae)
